Test results reported in patent US20250296953A1, “3,4-THIAZOLO-STEROIDS AND METHODS OF MAKING AND USING THE SAME” (Arkansas State University - Jonesboro, priority 2018, published 2025).
Like-named read-outs stand apart in the source and are kept apart here.

Tested on: 60 different human tumor cell lines
Assay: cells

Q: Which GI50 (60 cell) does the source give for C[C@]12CCc3sc(Nc4cccc(O)c4)nc3C1=CC[C@@H]1[C@@H]2CC[C@]2(C)C(=O)CC[C@@H]12 [IIa.17, (1S,2R,13R,14S,18S)-7-(3-hydroxyanilino)-2,18-dimethyl-6-thia-8-azapentacyclo[11.7.0.02,10.05,9.014,18]icosa-5(9),7,10-trien-17-one] here?
A: 5.52 µM

Q: What about the CC50 (60 cell, read-out: LC50) of the same compound?
A: > 100 µM

Q: What about the GI50 (786-0) of the same compound?
A: 3.02 µM

Q: And the CC50 (786-0, read-out: LC50)?
A: > 100 µM

Q: And the GI50 (A498)?
A: 28.8 µM

Q: And the CC50 (A498, read-out: LC50)?
A: > 100 µM

Q: What about the GI50 (A549) of the same compound?
A: 26.4 µM

Q: What about the CC50 (A549, read-out: LC50) of the same compound?
A: > 100 µM

Q: And the GI50 (ACHN)?
A: 7.81 µM

Q: And the CC50 (ACHN, read-out: LC50)?
A: > 100 µM

Q: What about the GI50 (BT-549) of the same compound?
A: 4.58 µM

Q: What about the CC50 (BT-549, read-out: LC50) of the same compound?
A: > 100 µM

Q: And the GI50 (CAKI-1)?
A: 13 µM

Q: And the CC50 (CAKI-1, read-out: LC50)?
A: 70 µM

Q: And the GI50 (CCRF-CEM)?
A: 2.84 µM

Q: What about the CC50 (CCRF-CEM, read-out: LC50) of the same compound?
A: > 100 µM

Q: And the GI50 (COLO 205)?
A: 12.3 µM

Q: What about the CC50 (COLO 205, read-out: LC50) of the same compound?
A: > 100 µM

Q: And the GI50 (DU-145)?
A: 4.34 µM

Q: What about the CC50 (DU-145, read-out: LC50) of the same compound?
A: > 100 µM

Q: And the GI50 (EKVX)?
A: 28.8 µM

Q: What about the CC50 (EKVX, read-out: LC50) of the same compound?
A: > 100 µM

Q: And the GI50 (HCC 2998)?
A: 18.2 µM

Q: What about the CC50 (HCC 2998, read-out: LC50) of the same compound?
A: > 100 µM

Q: And the GI50 (HCT-15)?
A: 2.53 µM

Q: And the CC50 (HCT-15, read-out: LC50)?
A: > 100 µM

Q: And the GI50 (HCT-116)?
A: 1.91 µM

Q: What about the CC50 (HCT-116, read-out: LC50) of the same compound?
A: 9.09 µM

Q: What about the GI50 (HOP-62) of the same compound?
A: 22.4 µM

Q: What about the CC50 (HOP-62, read-out: LC50) of the same compound?
A: > 100 µM

Q: And the GI50 (HOP-92)?
A: 18.7 µM

Q: And the GI50 (HT-29)?
A: 3.9 µM

Q: And the CC50 (HT-29, read-out: LC50)?
A: 75.2 µM

Q: What about the GI50 (Hs-578T) of the same compound?
A: 12 µM

Q: And the CC50 (Hs-578T, read-out: LC50)?
A: > 100 µM

Q: And the GI50 (IGROV-1)?
A: 8.21 µM

Q: And the CC50 (IGROV-1, read-out: LC50)?
A: > 100 µM

Q: And the GI50 (K562)?
A: 2.79 µM

Q: And the CC50 (K562, read-out: LC50)?
A: > 100 µM

Q: What about the GI50 (KM12) of the same compound?
A: 8.27 µM

Q: What about the CC50 (KM12, read-out: LC50) of the same compound?
A: 94.7 µM

Q: And the GI50 (LOX IMVI)?
A: 3.22 µM

Q: What about the CC50 (LOX IMVI, read-out: LC50) of the same compound?
A: 48.1 µM

Q: And the GI50 (M14)?
A: 7.88 µM

Q: What about the CC50 (M14, read-out: LC50) of the same compound?
A: > 100 µM

Q: What about the GI50 (MCF7) of the same compound?
A: 3.85 µM

Q: And the CC50 (MCF7, read-out: LC50)?
A: > 100 µM

Q: What about the GI50 (MDA-MB-231) of the same compound?
A: 13.4 µM

Q: What about the CC50 (MDA-MB-231, read-out: LC50) of the same compound?
A: > 100 µM

Q: And the GI50 (MDA-MB-435)?
A: 3.49 µM

Q: And the CC50 (MDA-MB-435, read-out: LC50)?
A: > 100 µM

Q: What about the GI50 (MDA-MB-468) of the same compound?
A: 3.59 µM

Q: And the CC50 (MDA-MB-468, read-out: LC50)?
A: 54.7 µM

Q: And the GI50 (MOLT-4)?
A: 2.84 µM

Q: And the CC50 (MOLT-4, read-out: LC50)?
A: ≥ 100 µM

Q: What about the GI50 (Malme-3M) of the same compound?
A: 21.2 µM

Q: What about the CC50 (Malme-3M, read-out: LC50) of the same compound?
A: > 100 µM

Q: What about the GI50 (NCI-H23) of the same compound?
A: 18.1 µM

Q: And the CC50 (NCI-H23, read-out: LC50)?
A: > 100 µM

Q: What about the GI50 (NCI-H226) of the same compound?
A: 7.36 µM

Q: And the CC50 (NCI-H226, read-out: LC50)?
A: > 100 µM

Q: And the GI50 (NCI-H322M)?
A: 50.5 µM

Q: What about the CC50 (NCI-H322M, read-out: LC50) of the same compound?
A: > 100 µM

Q: And the GI50 (NCI-H460)?
A: 4.65 µM

Q: And the CC50 (NCI-H460, read-out: LC50)?
A: > 100 µM

Q: What about the GI50 (NCI-H522) of the same compound?
A: 6.6 µM

Q: And the CC50 (NCI-H522, read-out: LC50)?
A: 69.3 µM

Q: What about the GI50 (NCI/ADR-RES) of the same compound?
A: 6.34 µM

Q: And the CC50 (NCI/ADR-RES, read-out: LC50)?
A: > 100 µM

Q: What about the GI50 (OVCAR-3) of the same compound?
A: 4.41 µM

Q: What about the CC50 (OVCAR-3, read-out: LC50) of the same compound?
A: > 100 µM

Q: What about the GI50 (OVCAR-4) of the same compound?
A: 18.9 µM

Q: And the CC50 (OVCAR-4, read-out: LC50)?
A: > 100 µM

Q: What about the GI50 (OVCAR-5) of the same compound?
A: 24.5 µM

Q: And the CC50 (OVCAR-5, read-out: LC50)?
A: > 100 µM

Q: And the GI50 (OVCAR-8)?
A: 7.61 µM

Q: And the CC50 (OVCAR-8, read-out: LC50)?
A: > 100 µM

Q: What about the GI50 (RXF 393) of the same compound?
A: 3.18 µM

Q: And the CC50 (RXF 393, read-out: LC50)?
A: 48.9 µM

Q: What about the GI50 (SF-268) of the same compound?
A: 5.95 µM

Q: And the CC50 (SF-268, read-out: LC50)?
A: > 100 µM

Q: What about the GI50 (SK-MEL-2) of the same compound?
A: 17.1 µM

Q: What about the CC50 (SK-MEL-2, read-out: LC50) of the same compound?
A: > 100 µM

Q: And the GI50 (SK-MEL-5)?
A: 10.2 µM

Q: What about the CC50 (SK-MEL-5, read-out: LC50) of the same compound?
A: 62.5 µM

Q: And the GI50 (SK-MEL-28)?
A: 20.5 µM

Q: What about the CC50 (SK-MEL-28, read-out: LC50) of the same compound?
A: > 100 µM

Q: What about the GI50 (SK-OV-3) of the same compound?
A: 34 µM

Q: What about the CC50 (SK-OV-3, read-out: LC50) of the same compound?
A: > 100 µM

Q: And the GI50 (SN12C)?
A: 3.81 µM

Q: What about the CC50 (SN12C, read-out: LC50) of the same compound?
A: > 100 µM

Q: And the GI50 (SNB-19)?
A: 12.9 µM

Q: What about the CC50 (SNB-19, read-out: LC50) of the same compound?
A: > 100 µM

Q: And the GI50 (SNB-75)?
A: 5.4 µM

Q: And the CC50 (SNB-75, read-out: LC50)?
A: > 100 µM

Q: And the GI50 (SW-620)?
A: 3.38 µM

Q: What about the CC50 (SW-620, read-out: LC50) of the same compound?
A: > 100 µM

Q: And the GI50 (T47D)?
A: 3.5 µM

Q: And the CC50 (T47D, read-out: LC50)?
A: > 100 µM

Q: What about the GI50 (TK-10) of the same compound?
A: 7.47 µM

Q: What about the CC50 (TK-10, read-out: LC50) of the same compound?
A: > 100 µM

Q: And the GI50 (U-251)?
A: 4.41 µM

Q: And the CC50 (U-251, read-out: LC50)?
A: 58.6 µM

Q: And the GI50 (UACC-62)?
A: 9.54 µM

Q: What about the CC50 (UACC-62, read-out: LC50) of the same compound?
A: 89.7 µM

Q: What about the GI50 (UACC-257) of the same compound?
A: 23.8 µM

Q: And the CC50 (UACC-257, read-out: LC50)?
A: > 100 µM

Q: What about the GI50 (UO-31) of the same compound?
A: 5.26 µM

Q: What about the CC50 (UO-31, read-out: LC50) of the same compound?
A: 49.9 µM
